Data from the supplement of paper PMC10733146.

What was measured:
Assay in all cases: viability relative to DMSO control (fraction); higher = less drug effect (more viable cells)
Conditions in all cases: 48 h
[1] = tested on: primary AML patient cells (S060)
How it was run: (§1)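 In 384-well plates with compounds pre-plated at five concentrations (one well per concentration), primary mononuclear tumour cells were plated at 4 × 10^4 cells per well. The cells came from blood or bone marrow by Ficoll isolation or from processed lymph node, and were used fresh or cryopreserved. Culture ran for 48 h at 37 °C and 5% CO2 in RPMI-1640 containing penicillin/streptomycin, L-glutamine and human serum. Viability was read as CellTiter-Glo luminescence, normalised to the median of 16 inner DMSO wells.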

[2] = tested on: primary DLBCL patient cells (S049)
How it was run: as §1

[3] = tested on: primary CLL patient cells (S043)
How it was run: as §1

[4] = tested on: primary DLBCL patient cells (S076)
How it was run: as §1

[5] = tested on: primary ALL patient cells (S048)
How it was run: as §1

[6] = tested on: primary AML patient cells (S056)
How it was run: as §1

[7] = tested on: primary AML patient cells (S079)
How it was run: as §1

[8] = tested on: primary ALL patient cells (S088)
How it was run: as §1

[9] = tested on: primary AML patient cells (S089)
How it was run: as §1

[10] = tested on: primary T-NHL patient cells (S058)
How it was run: as §1

[11] = tested on: primary AML patient cells (S072)
How it was run: as §1

[12] = tested on: primary AML patient cells (S006)
How it was run: as §1

[13] = tested on: primary AML patient cells (S071)
How it was run: as §1

[14] = tested on: primary CLL patient cells (S031)
How it was run: as §1

[15] = tested on: primary MCL patient cells (S063)
How it was run: as §1

[16] = tested on: primary DLBCL patient cells (S082)
How it was run: as §1

[17] = tested on: primary AML patient cells (S055)
How it was run: as §1

SMILES: Nc1ccn([C@@H]2O[C@H](CO)[C@@H](O)[C@@H]2O)c(=O)n1 [Cytarabine]
- viability ([1]; 0.032 µM): 1.09
- viability ([1]; 0.16 µM): 1.02
- viability ([1]; 0.8 µM): 1.01
- viability ([1]; 4 µM): 0.505
- viability ([1]; 20 µM): 0.132
- viability ([2]; 0.032 µM): 1.01
- viability ([2]; 0.16 µM): 0.886
- viability ([2]; 0.8 µM): 0.673
- viability ([2]; 4 µM): 0.264
- viability ([2]; 20 µM): 0.143
- viability ([3]; 0.032 µM): 1.1
- viability ([3]; 0.16 µM): 0.975
- viability ([3]; 0.8 µM): 0.707
- viability ([3]; 4 µM): 0.236
- viability ([3]; 20 µM): 0.0952
- viability ([4]; 0.032 µM): 1.01
- viability ([4]; 0.16 µM): 0.793
- viability ([4]; 0.8 µM): 0.711
- viability ([4]; 4 µM): 0.319
- viability ([4]; 20 µM): 0.118
- viability ([5]; 0.032 µM): 0.974
- viability ([5]; 0.16 µM): 0.862
- viability ([5]; 0.8 µM): 0.561
- viability ([5]; 4 µM): 0.154
- viability ([5]; 20 µM): 0.0402
- viability ([6]; 0.032 µM): 1.05
- viability ([6]; 0.16 µM): 1
- viability ([6]; 0.8 µM): 0.719
- viability ([6]; 4 µM): 0.177
- viability ([6]; 20 µM): 0.0767
- viability ([7]; 0.032 µM): 1.07
- viability ([7]; 0.16 µM): 1.01
- viability ([7]; 0.8 µM): 0.781
- viability ([7]; 4 µM): 0.297
- viability ([7]; 20 µM): 0.0864
- viability ([8]; 0.032 µM): 1.08
- viability ([8]; 0.16 µM): 0.969
- viability ([8]; 0.8 µM): 0.676
- viability ([8]; 4 µM): 0.304
- viability ([8]; 20 µM): 0.138
- viability ([9]; 0.032 µM): 1.1
- viability ([9]; 0.16 µM): 0.993
- viability ([9]; 0.8 µM): 0.783
- viability ([9]; 4 µM): 0.142
- viability ([9]; 20 µM): 0.0678
- viability ([10]; 0.032 µM): 0.81
- viability ([10]; 0.16 µM): 0.397
- viability ([10]; 0.8 µM): 0.237
- viability ([10]; 4 µM): 0.166
- viability ([10]; 20 µM): 0.108
- viability ([11]; 0.032 µM): 1.14
- viability ([11]; 0.16 µM): 1.06
- viability ([11]; 0.8 µM): 0.995
- viability ([11]; 4 µM): 0.774
- viability ([11]; 20 µM): 0.458
- viability ([12]; 0.032 µM): 1.09
- viability ([12]; 0.16 µM): 0.996
- viability ([12]; 0.8 µM): 0.773
- viability ([12]; 4 µM): 0.147
- viability ([12]; 20 µM): 0.0817
- viability ([13]; 0.032 µM): 0.891
- viability ([13]; 0.16 µM): 0.797
- viability ([13]; 0.8 µM): 0.64
- viability ([13]; 4 µM): 0.257
- viability ([13]; 20 µM): 0.172
- viability ([14]; 0.032 µM): 1.15
- viability ([14]; 0.16 µM): 1.04
- viability ([14]; 0.8 µM): 0.706
- viability ([14]; 4 µM): 0.177
- viability ([14]; 20 µM): 0.0741
- viability ([15]; 0.032 µM): 1.11
- viability ([15]; 0.16 µM): 1.08
- viability ([15]; 0.8 µM): 0.957
- viability ([15]; 4 µM): 0.489
- viability ([15]; 20 µM): 0.238
- viability ([16]; 0.032 µM): 1.08
- viability ([16]; 0.16 µM): 0.974
- viability ([16]; 0.8 µM): 0.702
- viability ([16]; 4 µM): 0.522
- viability ([16]; 20 µM): 0.484
- viability ([17]; 0.032 µM): 1.02
- viability ([17]; 0.16 µM): 1.08
- viability ([17]; 0.8 µM): 0.818
- viability ([17]; 4 µM): 0.346
- viability ([17]; 20 µM): 0.189
